Assay results taken from ChEMBL document CHEMBL5724914, “Linking interpersonal differences in gut microbiota composition and drug biotransformation activity” (2024).

How the values were obtained:
[1] = The drug is tested on Z-028 corresponding to mouse gut metagenome with ENA study accession number: PRJEB37062 and ENA sample accession number: ERS12561827 for biotransformation under anaerobic condition. The drug concentrations were measured over 9 timepoints collected between 0 and 24 hours of incubation by liquid-chromatography-coupled mass spectrometry (LC–MS); settings: 2 µM
[2] = The drug is tested on Z-026 corresponding to metagenome with ENA study accession number: PRJEB37062 and ENA sample accession number: ERS12561825 for biotransformation under anaerobic condition. The drug concentrations were measured over 9 timepoints collected between 0 and 24 hours of incubation by liquid-chromatography-coupled mass spectrometry (LC–MS); settings: 2 µM
[3] = The drug is tested on Z-024 corresponding to pig gut metagenome with ENA study accession number: PRJEB37062 and ENA sample accession number: ERS12561823 for biotransformation under anaerobic condition. The drug concentrations were measured over 9 timepoints collected between 0 and 24 hours of incubation by liquid-chromatography-coupled mass spectrometry (LC–MS); settings: 2 µM
[4] = The drug is tested on Z-023 corresponding to metagenome with ENA study accession number: PRJEB37062 and ENA sample accession number: ERS12561822 for biotransformation under anaerobic condition. The drug concentrations were measured over 9 timepoints collected between 0 and 24 hours of incubation by liquid-chromatography-coupled mass spectrometry (LC–MS); settings: 2 µM
[5] = The drug is tested on Z-021 corresponding to metagenome with ENA study accession number: PRJEB37062 and ENA sample accession number: ERS12561820 for biotransformation under anaerobic condition. The drug concentrations were measured over 9 timepoints collected between 0 and 24 hours of incubation by liquid-chromatography-coupled mass spectrometry (LC–MS); settings: 2 µM
[6] = The drug is tested on Z-018 corresponding to pig gut metagenome with ENA study accession number: PRJEB37062 and ENA sample accession number: ERS12561817 for biotransformation under anaerobic condition. The drug concentrations were measured over 9 timepoints collected between 0 and 24 hours of incubation by liquid-chromatography-coupled mass spectrometry (LC–MS); settings: 2 µM
[7] = The drug is tested on Z-010 corresponding to metagenome with ENA study accession number: PRJEB37062 and ENA sample accession number: ERS12561810 for biotransformation under anaerobic condition. The drug concentrations were measured over 9 timepoints collected between 0 and 24 hours of incubation by liquid-chromatography-coupled mass spectrometry (LC–MS); settings: 2 µM
[8] = The drug is tested on Z-009 corresponding to pig gut metagenome with ENA study accession number: PRJEB37062 and ENA sample accession number: ERS12561809 for biotransformation under anaerobic condition. The drug concentrations were measured over 9 timepoints collected between 0 and 24 hours of incubation by liquid-chromatography-coupled mass spectrometry (LC–MS); settings: 2 µM
[9] = The drug is tested on WLS-310 corresponding to human gut metagenome with ENA study accession number: PRJEB37062 and ENA sample accession number: ERS12561785 for biotransformation under anaerobic condition. The drug concentrations were measured over 9 timepoints collected between 0 and 24 hours of incubation by liquid-chromatography-coupled mass spectrometry (LC–MS); settings: 2 µM
[10] = The drug is tested on WLS-038 corresponding to human gut metagenome with ENA study accession number: PRJEB37062 and ENA sample accession number: ERS12561745 for biotransformation under anaerobic condition. The drug concentrations were measured over 9 timepoints collected between 0 and 24 hours of incubation by liquid-chromatography-coupled mass spectrometry (LC–MS); settings: 2 µM
[11] = human gut metagenome, 24 h, 2 µM
[12] = human gut metagenome, 24 h, 2 µM; remark: listed apart in the source
[13] = human gut metagenome, 24 h, 2 µM; remark: listed apart in the source
[14] = human gut metagenome, 24 h, 2 µM; remark: listed apart in the source
[15] = The drug is tested on WLS-220 corresponding to human gut metagenome with ENA study accession number: PRJEB37062 and ENA sample accession number: ERS12561769 for biotransformation under anaerobic condition. The drug concentrations were measured over 9 timepoints collected between 0 and 24 hours of incubation by liquid-chromatography-coupled mass spectrometry (LC–MS); settings: 2 µM
[16] = The drug is tested on WLS-090 corresponding to human gut metagenome with ENA study accession number: PRJEB37062 and ENA sample accession number: ERS12561753 for biotransformation under anaerobic condition. The drug concentrations were measured over 9 timepoints collected between 0 and 24 hours of incubation by liquid-chromatography-coupled mass spectrometry (LC–MS); settings: 2 µM
[17] = The drug is tested on WLS-086 corresponding to human gut metagenome with ENA study accession number: PRJEB37062 and ENA sample accession number: ERS12561752 for biotransformation under anaerobic condition. The drug concentrations were measured over 9 timepoints collected between 0 and 24 hours of incubation by liquid-chromatography-coupled mass spectrometry (LC–MS); settings: 2 µM
[18] = human gut metagenome, 24 h, 2 µM; remark: listed apart in the source
[19] = human gut metagenome, 24 h, 2 µM; remark: listed apart in the source
[20] = human gut metagenome, 24 h, 2 µM; remark: listed apart in the source
Further: call rule not given here.

Structure (SMILES)	Bacterial Biotransformation [1]	Bacterial Biotransformation [2]	Bacterial Biotransformation [3]	Bacterial Biotransformation [4]	Bacterial Biotransformation [5]	Bacterial Biotransformation [6]	Bacterial Biotransformation [7]	Bacterial Biotransformation [8]	Bacterial Biotransformation [9]	Bacterial Biotransformation [10]	Bacterial Biotransformation [11]	Bacterial Biotransformation [12]	Bacterial Biotransformation [13]	Bacterial Biotransformation [14]	Bacterial Biotransformation [15]	Bacterial Biotransformation [16]	Bacterial Biotransformation [17]	Bacterial Biotransformation [18]	Bacterial Biotransformation [19]	Bacterial Biotransformation [20]
COC1=C(OC)C(=O)C(CCCCCCCCCCO)=C(C)C1=O [IDEBENONE]	Compound metabolized	Compound NOT metabolized	Compound metabolized	Compound metabolized	Compound metabolized	Compound metabolized	Compound metabolized	Compound metabolized	Compound metabolized	Compound metabolized	Compound metabolized	Compound metabolized	Compound metabolized	Compound metabolized						
CC(=O)O[C@H]1C(=O)[C@@]2(C)[C@H]([C@H](OC(=O)c3ccccc3)[C@]3(O)C[C@H](OC(=O)[C@H](O)[C@@H](NC(=O)c4ccccc4)c4ccccc4)C(C)=C1C3(C)C)[C@]1(OC(C)=O)CO[C@@H]1C[C@@H]2O [PACLITAXEL]	Compound metabolized	Compound metabolized	Compound metabolized	Compound metabolized	Compound NOT metabolized	Compound metabolized	Compound metabolized	Compound metabolized	Compound NOT metabolized	Compound metabolized			Compound NOT metabolized	Compound NOT metabolized	Compound NOT metabolized	Compound NOT metabolized	Compound NOT metabolized	Compound NOT metabolized	Compound NOT metabolized	Compound NOT metabolized
C#C[C@]1(OC(C)=O)CC[C@H]2[C@@H]3CCC4=CC(=O)CC[C@@H]4[C@H]3CC[C@@]21C [NORETHINDRONE ACETATE]	Compound metabolized		Compound metabolized	Compound metabolized	Compound metabolized	Compound metabolized	Compound metabolized	Compound metabolized		Compound metabolized		Compound metabolized	Compound metabolized	Compound NOT metabolized			Compound NOT metabolized	Compound metabolized		
CC(C)C[C@H]1C(=O)N2CCC[C@H]2[C@]2(O)O[C@](NC(=O)[C@@H]3C=C4c5cccc6[nH]c(Br)c(c56)C[C@H]4N(C)C3)(C(C)C)C(=O)N12.CS(=O)(=O)O [BROMOCRIPTINE MESYLATE]	Compound metabolized	Compound metabolized	Compound metabolized	Compound metabolized	Compound metabolized	Compound metabolized	Compound metabolized	Compound metabolized	Compound metabolized	Compound metabolized	Compound metabolized		Compound metabolized	Compound metabolized	Compound metabolized	Compound metabolized		Compound metabolized	Compound metabolized	Compound metabolized
Cc1cc2c(s1)Nc1ccccc1N=C2N1CCN(C)CC1 [OLANZAPINE]	Compound NOT metabolized	Compound NOT metabolized	Compound NOT metabolized	Compound NOT metabolized	Compound NOT metabolized	Compound NOT metabolized	Compound NOT metabolized	Compound NOT metabolized	Compound NOT metabolized	Compound NOT metabolized	Compound NOT metabolized	Compound metabolized	Compound NOT metabolized		Compound NOT metabolized			Compound NOT metabolized	Compound NOT metabolized	Compound NOT metabolized
CN1C[C@H](C(=O)N[C@]2(C)O[C@@]3(O)[C@@H]4CCCN4C(=O)[C@H](Cc4ccccc4)N3C2=O)C[C@@H]2c3cccc4[nH]cc(c34)C[C@H]21.CS(=O)(=O)O [DIHYDROERGOTAMINE MESYLATE]	Compound NOT metabolized	Compound metabolized	Compound metabolized	Compound metabolized	Compound NOT metabolized	Compound NOT metabolized	Compound NOT metabolized	Compound NOT metabolized												
CCCCCNC(=N)N/N=C/c1c[nH]c2ccc(OC)cc12.O=C(O)/C=C\C(=O)O [TEGASEROD MALEATE]	Compound NOT metabolized	Compound NOT metabolized	Compound metabolized	Compound metabolized	Compound NOT metabolized	Compound NOT metabolized	Compound metabolized	Compound metabolized	Compound NOT metabolized			Compound NOT metabolized		Compound NOT metabolized	Compound NOT metabolized	Compound metabolized	Compound NOT metabolized	Compound NOT metabolized	Compound NOT metabolized	Compound NOT metabolized
